Reference: patent US9000022B2 (Exelixis Patent Company LLC, priority 2005, dated 2015)

System: LXRα and/or LXRβ
Assay: Co-transfection assay (LXRE luciferase reporter, CV-1 cells)
Assay type: cell-based, human
Settings: tested as described in Example 33; IC50 or EC50 for LXRα and/or LXRβ, isoform not specified; read-out: activity (IC50 or EC50 for LXR)
Summary of the method: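 Luciferase signal measures LXR-RXR transcriptional activation in transiently transfected CV-1 cells carrying human LXRα or LXRβ, RXRα and a single-copy LXRE reporter. Cells were exposed to compound for 20 h at 37 °C with at most 1% DMSO, using 10 μM final for screening. Potency was derived from 4-parameter fits of 8-point, half-log dose curves averaged over ≥3 runs, and efficacy was expressed as % of a reference agonist.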

IC50 or EC50 (potency, activation or inhibition) [µM] | SMILES
< 1 | CCS(=O)(=O)c1cccc(-c2ccc(-n3cc(C(C)(C)O)nc3-c3c(F)cccc3Cl)c(C)c2)c1 [Example 188, 2-(2-(2-chloro-6-fluorophenyl)-1-(3′-(ethylsulfonyl)-3-methylbiphenyl-4-yl)-1H-imidazol-4-yl)propan-2-ol]
< 1 | Cc1cc(-c2cccc(S(C)(=O)=O)c2)ccc1-n1cc(C(C)(C)O)nc1-c1c(C)cccc1Cl [Example 191, 2-(2-(2-chloro-6-methylphenyl)-1-(3-methyl-3′-(methylsulfonyl)biphenyl-4-yl)-1H-imidazol-4-yl)propan-2-ol]
< 1 | CC(C)(O)c1cn(-c2ccc(-c3ccc(CO)c(S(C)(=O)=O)c3)cc2Cl)c(-c2cccc(Cl)c2Cl)n1 [Example 148, 2-(1-(3-chloro-4′-(hydroxymethyl)-3′-(methylsulfonyl)biphenyl-4-yl)-2-(2,3-dichlorophenyl)-1H-imidazol-4-yl)propan-2-ol]
< 1 | Cc1cccc(Cl)c1-c1nc(C(C)(C)O)cn1-c1ccc(-c2cccc(S(C)(=O)=O)c2)cc1 [Example 394, 2-{2-(2-chloro-6-methylphenyl)-1-[3′-(methylsulfonyl)biphenyl-4-yl]-1H-imidazol-4-yl}propan-2-ol]
< 1 | CC(C)(O)c1cn(-c2ccc(-c3cccc(S(C)(=O)=O)c3)cc2Cl)c(-c2c(F)cccc2F)n1 [Example 157, 2-(1-(3-chloro-3′-(methyl-sulfonyl)biphenyl-4-yl)-2-(2,6-difluorophenyl)-1H-imidazol-4-yl)propan-2-ol]
< 1 | CC(C)(O)c1cn(-c2ccc(-c3cccc(S(C)(=O)=O)c3)cc2)c(-c2cccc(Cl)c2Cl)n1 [Example 382, 2-{2-(2,3-dichlorophenyl)-1-[3′-(methylsulfonyl)biphenyl-4-yl]-1H-imidazol-4-yl}propan-2-ol]
< 1 | Cc1cc(-c2cccc(S(C)(=O)=O)c2)ccc1-n1cc(C(C)(C)O)nc1-c1ccc(C)n1C [Example 42, 2-(2-(1,5-dimethyl-1H-pyrrol-2-yl)-1-(3-methyl-3′-(methylsulfonyl)biphenyl-4-yl)-1H-imidazol-4-yl)propan-2-ol]
< 1 | CC(C)(O)c1cn(-c2ccc(-c3cccc(S(C)(=O)=O)c3)cc2F)c(-c2ccccc2Cl)n1 [Example 386, 2-{2-(2-chlorophenyl)-1-[3-fluoro-3′-(methylsulfonyl)biphenyl-4-yl]-1H-imidazol-4-yl}propan-2-ol]
< 1 | Cc1cc(-c2cccc(S(C)(=O)=O)c2)ccc1-n1cc(C(C)(C)O)nc1-c1ccccc1C(C)C [Example 195, 2-(2-(2-isopropylphenyl)-1-(3-methyl-3′-(methylsulfonyl)biphenyl-4-yl)-1H-imidazol-4-yl)propan-2-ol]
1 to 10 | CC(C)(O)c1cn(-c2ccc(-c3cccc(S(C)(=O)=O)c3)cc2)c(-c2c(F)cccc2Cl)n1 [Example 416, 2-{2-(2-chloro-6-fluorophenyl)-1-[3′-(methylsulfonyl)biphenyl-4-yl]-1H-imidazol-4-yl}propan-2-ol]
1 to 10 | CC(C)(O)c1cn(-c2ccc(-c3cccc(S(C)(=O)=O)c3)cc2)c(-c2ccccc2F)n1 [Example 380, 2-{2-(2-fluorophenyl)-1-[3′-(methylsulfonyl)biphenyl-4-yl]-1H-imidazol-4-yl}propan-2-ol]
< 1 | CC(C)(O)c1cn(-c2ccc(-c3cccc(S(C)(=O)=O)c3)cc2Cl)c(-c2cccc(Cl)c2Cl)n1 [Example 140, 2-(1-(3-chloro-3′-(methyl-sulfonyl)biphenyl-4-yl)-2-(2,3-dichlorophenyl)-1H-imidazol-4-yl)propan-2-ol]
< 1 | Cc1cc(-c2cccc(S(C)(=O)=O)c2)ccc1-n1cc(C(C)(C)O)nc1-c1c(Cl)cccc1Cl [Example 181, 2-(2-(2,6-dichlorophenyl)-1-(3-methyl-3′-(methylsulfonyl)biphenyl-4-yl)-1H-imidazol-4-yl)propan-2-ol]
< 1 | CCS(=O)(=O)c1cccc(-c2ccc(-n3cc(C(C)(C)O)nc3-c3cccc(Cl)c3Cl)c(F)c2)c1 [Example 114, 2-(2-(2,3-dichlorophenyl)-1-(3′-(ethylsulfonyl)-3-fluorobiphenyl-4-yl)-1H-imidazol-4-yl)propan-2-ol]
< 1 | CC(C)(O)CNC(=O)c1cn(-c2ccc(-c3cccc(S(C)(=O)=O)c3)cc2Cl)c(-c2c(Cl)cccc2Cl)n1 [Example 472, 1-(3-chloro-3′-(methylsulfonyl)biphenyl-4-yl)-2-(2,6-dichlorophenyl)-N-(2-hydroxy-2-methylpropyl)-1H-imidazole-4-carboxamide]
1 to 10 | CC(C)(O)c1cn(-c2ccc(-c3cccc(CO)c3)cc2)c(-c2cccc(Cl)c2Cl)n1 [Example 476, 2-(2-(2,3-dichlorophenyl)-1-(3′-(hydroxymethyl)biphenyl-4-yl)-1H-imidazol-4-yl)propan-2-ol]
< 1 | CCS(=O)(=O)c1cccc(-c2ccc(-n3cc(C(=O)NCC(C)(C)O)nc3-c3c(Cl)cccc3Cl)c(Cl)c2)c1 [Example 473, 1-(3-chloro-3′-(ethylsulfonyl)biphenyl-4-yl)-2-(2,6-dichlorophenyl)-N-(2-hydroxy-2-methylpropyl)-1H-imidazole-4-carboxamide]

Continued, compound first:

SMILES | IC50 or EC50 (potency, activation or inhibition) [µM]
CC(C)(O)c1cn(-c2cccc(-c3ccc(S(C)(=O)=O)cc3)c2)c(-c2ccccc2C(F)(F)F)n1 [Example 407, 2-{1-[4′-(methylsulfonyl)biphenyl-3-yl]-2-[2-(trifluoromethyl)phenyl]-1H-imidazol-4-yl}propan-2-ol] | < 1
Cc1cc(-c2ccc(CO)c(S(C)(=O)=O)c2)ccc1-n1cc(C(C)(C)O)nc1-c1cccc(Cl)c1C [Example 175, 2-(2-(3-chloro-2-methylphenyl)-1-(4′-(hydroxymethyl)-3-methyl-3′-(methylsulfonyl)biphenyl-4-yl)-1H-imidazol-4-yl)propan-2-ol] | < 1
CS(=O)(=O)c1cccc(-c2ccc(-c3[nH]c(C(F)(F)F)nc3-c3ccccc3Cl)cc2)c1 [Example 359, 4-(2-chlorophenyl)-5-[3′-(methyl-sulfonyl)biphenyl-4-yl]-2-(trifluoro-methyl)-1H-imidazole] | < 1
CC(C)(O)c1cn(-c2ccc(-c3cccc(S(C)(=O)=O)c3)cc2)c(-c2ccc(F)cc2)n1 [Example 385, 2-{2-(4-fluorophenyl)-1-[3′-(methylsulfonyl)biphenyl-4-yl]-1H-imidazol-4-yl}propan-2-ol] | 1 to 10
CC(C)S(=O)(=O)c1cccc(-c2ccc(-n3cc(C(C)(C)O)nc3-c3ccccc3C(F)(F)F)cc2)c1 [Example 413] | < 1
CC(C)(O)c1cn(-c2ccc(-c3cccc(S(C)(=O)=O)c3)cc2)c(-c2ccccc2)n1 [Example 378, 2-{1-[3′-(methylsulfonyl)biphenyl-4-yl]-2-phenyl-1H-imidazole-4-yl}propan-2-ol] | 1 to 10
CC(C)(O)c1cn(-c2ccc(Br)cc2)c(-c2ccccc2C(F)(F)F)n1 [Example 374, 2-{1-(4-bromophenyl)-2-[2-(trifluoromethyl)phenyl]-1H-imidazol-4-yl}propan-2-ol] | 1 to 10
CC(C)(O)c1cn(-c2ccc(-c3cc(C(F)(F)F)ccc3F)cc2)c(-c2ccccc2C(F)(F)F)n1 [Example 220, 2-{1-[2′-fluoro-5′-(trifluoro-methyl)biphenyl-4-yl]-2-[2-(trifluoro-methyl)phenyl]-1H-imidazol-4-yl}propan-2-ol] | < 1
CCS(=O)(=O)c1cccc(-c2ccc(-n3cc(C(C)(C)O)nc3-c3cccc4cnccc34)c(C)c2)c1 [Example 36, 2-(1-(3′-(ethylsulfonyl)-3-methylbiphenyl-4-yl)-2-(isoquinolin-5-yl)-1H-imidazol-4-yl)propan-2-ol] | 1 to 10
CC(C)(O)c1cn(-c2ccc(-c3ccc(CO)c(S(C)(=O)=O)c3)cc2)c(-c2c(F)cccc2Cl)n1 [Example 100, 2-(2-(2-chloro-6-fluorophenyl)-1-(4′-(hydroxymethyl)-3′-(methyl-sulfonyl)biphenyl-4-yl)-1H-imidazol-4-yl)propan-2-ol] | 1 to 10
Cc1cccc(Cl)c1-c1nc(C(C)(C)O)cn1-c1ccc(-c2ccc(CO)c(S(C)(=O)=O)c2)cc1 [Example 102, 2-(2-(2-chloro-6-methylphenyl)-1-(4′-(hydroxymethyl)-3′-(methyl-sulfonyl)biphenyl-4-yl)-1H-imidazol-4-yl)propan-2-ol] | < 1
CCS(=O)(=O)c1cccc(-c2ccc(-n3cc(C(=O)NCCO)nc3-c3c(Cl)cccc3Cl)c(Cl)c2)c1 [Example 471, 1-(3-chloro-3′-(ethylsulfonyl)biphenyl-4-yl)-2-(2,6-dichlorophenyl)-N-(2-hydroxyethyl)-1H-imidazole-4-carboxamide] | < 1
FC(F)(F)CNC(=S)c1cn(-c2ccc(Br)cc2)c(-c2ccccc2Cl)n1 [Example 396, 1-(4-bromophenyl)-2-(2-chlorophenyl)-N-(2,2,2-trifluoroethyl)-1H-imidazole-4-carbothioamide] | 1 to 10
CCS(=O)(=O)c1cccc(-c2ccc(-n3cc(C(=O)NCC(F)(F)F)nc3-c3c(Cl)cccc3Cl)c(Cl)c2)c1 [Example 462, 1-(3-chloro-3′-(ethylsulfonyl)biphenyl-4-yl)-2-(2,6-dichlorophenyl)-N-(2,2,2-trifluoroethyl)-1H-imidazole-4-carboxamide] | < 1
